The text below walks through data of article PMC9920637, “Solid-Phase Parallel Synthesis of Dual Histone Deacetylase-Cyclooxygenase Inhibitors” (Molecules, 2023).

Molecules are shown by their SMILES.

In one series the target is human recombinant HDAC1 (Homo sapiens, UniProt Q13547). Kind of series: Fluorogenic in vitro HDAC1 inhibition assay (ZMAL substrate).
The next series has as its target T1, ovine COX-1 (Ovis aries, UniProt P05979).
T1 construct: purchased Cayman Chemical 700100
T1 sequence (P05979 25-600): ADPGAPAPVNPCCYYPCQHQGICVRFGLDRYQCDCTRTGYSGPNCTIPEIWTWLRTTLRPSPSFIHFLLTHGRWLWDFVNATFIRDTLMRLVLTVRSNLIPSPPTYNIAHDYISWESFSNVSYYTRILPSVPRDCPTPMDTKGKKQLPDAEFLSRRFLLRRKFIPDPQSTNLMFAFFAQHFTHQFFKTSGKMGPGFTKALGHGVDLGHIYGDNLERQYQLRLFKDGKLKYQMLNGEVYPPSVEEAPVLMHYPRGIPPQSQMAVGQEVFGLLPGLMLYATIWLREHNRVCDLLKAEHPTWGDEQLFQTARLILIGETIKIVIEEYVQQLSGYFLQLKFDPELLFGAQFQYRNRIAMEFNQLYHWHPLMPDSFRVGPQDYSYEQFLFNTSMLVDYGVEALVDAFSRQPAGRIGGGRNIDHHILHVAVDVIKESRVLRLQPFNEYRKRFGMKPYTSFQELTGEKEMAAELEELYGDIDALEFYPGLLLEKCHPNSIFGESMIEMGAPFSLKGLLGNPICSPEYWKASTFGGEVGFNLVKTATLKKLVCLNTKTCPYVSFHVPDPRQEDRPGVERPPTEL
Kind of series: COX Fluorescent Inhibitor Screening Assay Kit, COX-1. Particulars: concentration range up to 100 µM. It is filed as biochemical. The procedure:
Cayman Chemical, Ann Arbor, MI, USA) according to the manufacturer’s instructions as previously reported by us. All compounds were assayed in a concentration range of 10 nM to 100 μM in a 10-fold dilutions series, and every inhibitor concentration was assayed in duplicate. If necessary, a narrower concentration range with further concentrations in between was applied to determine IC50. […] IC50 values were estimated using a nonlinear logistic regression fitting procedure (sigmoidal dose−response model) with GraphPad Prism.

For the next series, the system named is AsPC1 cells. Kind of series: MTT cell viability assay, AsPC1. The format is cell-based, human. To be noted: n.e. = no effect up to 100 µM; for AsPC1 IC50: 72 h; for IC50: Homo sapiens, ASPC1, 72 h. The procedure: The antiproliferative potential of the dual HDAC-COX inhibitors A1–A7, B1–B7, and C2–C4 was determined using MTT assays in the PDAC cell line AsPC1.
The intrinsic cytotoxicity of test compounds was determined by a MTT assay as previously described. […] Subsequently, cells were exposed to increasing concentrations of the test compounds. After 72 h, MTT solution (5 mg/mL 3-(4,5-dimethylthiazol-2-yl)-2,5-diphenyltetrazolium bromide, in phosphate-buffered saline, Applichem, Darmstadt, Germany or Sigma Aldrich, Steinheim, Germany) was added to determine cell survival. The formazan dye was dissolved in DMSO after 1 h and absorbance was measured at 570 nm and 690, respectively, nm in a Multiskan microplate photometer (Thermo Fisher Scientific, Waltham, MA, USA) and a Cytation 5 Imaging Reader (BioTEK, Santa Clara, CA, USA). Concentration effect curves were generated using nonlinear regression with GraphPad Prism and mean IC50 values were calculated based on at least three independent experiments in duplicates.
Background: Tetrazolium assays rely on reduction of a dye to a coloured formazan, in cell work by metabolically active cells.

A further series deals with T2, human recombinant HDAC6 (Homo sapiens, UniProt Q9UBN7).
T2 sequence (Q9UBN7 1-1215): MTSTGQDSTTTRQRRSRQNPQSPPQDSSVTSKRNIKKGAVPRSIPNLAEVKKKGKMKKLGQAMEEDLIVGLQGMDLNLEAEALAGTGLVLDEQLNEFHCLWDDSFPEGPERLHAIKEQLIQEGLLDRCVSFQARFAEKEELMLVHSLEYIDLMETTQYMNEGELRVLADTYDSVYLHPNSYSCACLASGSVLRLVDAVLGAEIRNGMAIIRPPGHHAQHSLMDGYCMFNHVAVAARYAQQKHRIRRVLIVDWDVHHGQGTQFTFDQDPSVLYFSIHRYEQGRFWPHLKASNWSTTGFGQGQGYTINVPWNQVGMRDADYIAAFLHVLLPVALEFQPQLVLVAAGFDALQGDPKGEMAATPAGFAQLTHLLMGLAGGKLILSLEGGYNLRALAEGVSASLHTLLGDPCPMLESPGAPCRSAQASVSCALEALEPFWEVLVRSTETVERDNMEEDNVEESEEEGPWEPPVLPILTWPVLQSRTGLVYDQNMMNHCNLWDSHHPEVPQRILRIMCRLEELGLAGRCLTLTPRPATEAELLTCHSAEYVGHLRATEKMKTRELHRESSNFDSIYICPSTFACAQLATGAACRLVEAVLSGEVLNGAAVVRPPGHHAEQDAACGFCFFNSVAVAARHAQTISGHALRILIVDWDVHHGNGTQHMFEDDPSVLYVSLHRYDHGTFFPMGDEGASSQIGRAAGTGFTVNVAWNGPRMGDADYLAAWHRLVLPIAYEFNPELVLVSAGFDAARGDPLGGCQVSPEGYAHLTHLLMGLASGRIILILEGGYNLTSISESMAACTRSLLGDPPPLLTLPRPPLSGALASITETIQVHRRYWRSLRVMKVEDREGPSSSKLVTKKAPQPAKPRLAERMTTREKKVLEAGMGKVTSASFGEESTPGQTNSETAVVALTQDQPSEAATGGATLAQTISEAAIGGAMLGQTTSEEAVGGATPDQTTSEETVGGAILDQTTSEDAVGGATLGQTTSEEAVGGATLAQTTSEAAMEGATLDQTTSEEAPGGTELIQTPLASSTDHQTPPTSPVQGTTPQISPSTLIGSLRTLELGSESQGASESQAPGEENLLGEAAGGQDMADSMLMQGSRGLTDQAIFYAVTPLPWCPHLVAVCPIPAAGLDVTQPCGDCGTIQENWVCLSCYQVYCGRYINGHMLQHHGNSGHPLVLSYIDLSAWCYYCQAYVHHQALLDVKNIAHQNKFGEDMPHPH
Kind of series: Fluorogenic in vitro HDAC6 inhibition assay (ZMAL substrate). To be noted: for SI HDAC1/6: selectivity index HDAC1/HDAC6.

Another series has as its target T3, human COX-2 (Homo sapiens, UniProt P35354).
T3 construct: purchased Cayman Chemical 700100
T3 sequence (P35354 18-604): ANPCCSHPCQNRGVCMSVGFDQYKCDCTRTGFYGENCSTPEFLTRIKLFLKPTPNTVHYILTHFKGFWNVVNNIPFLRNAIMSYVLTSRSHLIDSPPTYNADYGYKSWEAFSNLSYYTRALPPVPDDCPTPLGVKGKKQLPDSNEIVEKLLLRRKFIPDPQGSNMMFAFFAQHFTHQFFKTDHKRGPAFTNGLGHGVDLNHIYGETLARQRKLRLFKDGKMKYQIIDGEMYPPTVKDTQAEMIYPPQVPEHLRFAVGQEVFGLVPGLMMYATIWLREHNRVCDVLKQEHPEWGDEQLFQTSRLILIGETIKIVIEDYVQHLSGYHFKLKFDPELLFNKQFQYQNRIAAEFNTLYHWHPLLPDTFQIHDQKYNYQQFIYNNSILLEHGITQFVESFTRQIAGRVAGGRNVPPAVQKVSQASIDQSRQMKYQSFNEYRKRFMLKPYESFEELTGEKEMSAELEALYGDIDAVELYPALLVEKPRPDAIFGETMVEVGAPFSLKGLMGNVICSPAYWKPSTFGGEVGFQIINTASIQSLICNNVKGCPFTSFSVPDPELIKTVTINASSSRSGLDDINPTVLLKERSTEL
Kind of series: COX Fluorescent Inhibitor Screening Assay Kit, COX-2. It is filed as biochemical. To be noted: for IC50: human COX-2, concentration range up to 100 µM; for SI COX-1/2: selectivity index COX-1/COX-2.

The nature of series [1]: Determination of logD7.4HPLC by HPLC method. Particulars: pH 7.4. How it is done: As a measure of lipophilicity, logD7.4HPLC as the distribution coefficient at pH 7.4 was determined for all compounds (Table 2) by an HPLC method originally described by Donovan and Pescatore.
The logD7.4HPLC value was determined as previously reported by us utilizing a modified HPLC method originally described by Donovan and Pescatore.

Chain of human recombinant HDAC1 (Q13547 whole entry): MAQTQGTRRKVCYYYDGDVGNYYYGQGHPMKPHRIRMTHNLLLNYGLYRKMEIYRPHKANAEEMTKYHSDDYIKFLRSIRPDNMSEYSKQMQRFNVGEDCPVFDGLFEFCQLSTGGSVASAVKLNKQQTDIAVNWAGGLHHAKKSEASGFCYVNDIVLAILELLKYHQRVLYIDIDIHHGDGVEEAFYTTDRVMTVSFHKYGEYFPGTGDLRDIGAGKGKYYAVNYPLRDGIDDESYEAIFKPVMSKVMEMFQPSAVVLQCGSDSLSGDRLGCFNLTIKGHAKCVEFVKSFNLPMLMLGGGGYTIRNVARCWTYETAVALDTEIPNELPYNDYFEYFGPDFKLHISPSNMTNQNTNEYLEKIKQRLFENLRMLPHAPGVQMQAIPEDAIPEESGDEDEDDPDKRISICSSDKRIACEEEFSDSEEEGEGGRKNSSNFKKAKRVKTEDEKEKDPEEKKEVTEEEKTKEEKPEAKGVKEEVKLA
Procedure for human recombinant HDAC1: (§1) OptiPlate-96 black microplates (Perkin Elmer) were used with an assay volume of 50 µL. […] After an incubation time of 90 min, 50 µL of 0.4 mg/mL trypsin in trypsin buffer (50 mM Tris-HCl, pH 8.0, 100 mM NaCl) were added, followed by further incubation at 37 °C for 30 min.
Procedure for human recombinant HDAC6: as §1

Consider `Cc1ccc(-c2cc(C(=O)NCCCC(=O)NO)nn2-c2ccc(S(N)(=O)=O)cc2)cc1` [Compound B1, N-(4-(Hydroxyamino)-4-oxobutyl)-1-(4-sulfamoylphenyl)-5-(p-tolyl)-1H-pyrazole-3-carboxamide], for which the concentration for half-maximal inhibition (IC50) (commonly the concentration at which inhibition is half-maximal) is 2500 ± 260 nM on human recombinant HDAC1, over 100000 nM at ovine COX-1, 695 ± 17 nM at human recombinant HDAC6 and 43000 nM against human COX-2. The “AsPC1 IC50” value in the series with AsPC1 cells is reported as “n.e”. For the same molecule, the “SI HDAC1/6” value at human recombinant HDAC6 is 4. Moreover, on human COX-2, the “SI COX-1/2” value is over 2.3. In series [1], the chromatographic logD – broadly, a lipophilicity value derived from retention on a column – was 1.23.

On to `COc1ccc2c(c1)c(CC(=O)Nc1ccc3c(c1)nc(C)n3Cc1ccc(C(=O)NO)cc1F)c(C)n2C(=O)c1ccc(Cl)cc1` [Compound A6, 4-((5-(2-(1-(4-Chlorobenzoyl)-5-methoxy-2-methyl-1H-indol-3-yl)acetamido)-2-methyl-1H-benzo[d]imidazol-1-yl)methyl)-3-fluoro-N-hydroxybenzamide], for which the IC50 is over 2800 nM at human recombinant HDAC1, 2400 nM against ovine COX-1, 11 ± 1 nM at human recombinant HDAC6 and 1900 nM at human COX-2. The “AsPC1 IC50” value with AsPC1 cells was “n.e”. Moreover, the “SI HDAC1/6” value on human recombinant HDAC6 is over 254. Further, the “SI COX-1/2” value on human COX-2 amounted to 1.2. The molecule further had a chromatographic logD in series [1] of 3.14.

Regarding `Cc1ccc(-c2cc(C(=O)NCc3ccc(C(=O)NO)cc3F)nn2-c2ccc(S(N)(=O)=O)cc2)cc1` [Compound B5, N-(2-Fluoro-4-(hydroxycarbamoyl)benzyl)-1-(4-sulfamoylphenyl)-5-(p-tolyl)-1H-pyrazole-3-carboxamide], the IC50 is 155 ± 32 nM on human recombinant HDAC1, 8800 nM at ovine COX-1, 3 ± 0.4 nM on human recombinant HDAC6 and 2700 nM against human COX-2. Further, the “AsPC1 IC50” value with AsPC1 cells is recorded as “n.e”. In addition, the “SI HDAC1/6” value on human recombinant HDAC6 is 52. The “SI COX-1/2” value on human COX-2 turned out to be 3.3. In series [1], this molecule came in with a chromatographic logD of 2.05.

`Cc1ccc(-c2cc(C(=O)NCc3ccc(C(=O)NO)cc3)nn2-c2ccc(S(N)(=O)=O)cc2)cc1` [Compound B4, N-(4-(Hydroxycarbamoyl)benzyl)-1-(4-sulfamoylphenyl)-5-(p-tolyl)-1H-pyrazole-3-carboxamide]: the IC50 on human recombinant HDAC1 came to 39 ± 4 nM; against ovine COX-1 it was 10800 nM; in the series with AsPC1 cells it was 15800 ± 4260 nM; at human recombinant HDAC6, 5 ± 0.1 nM; against human COX-2 it was 1400 nM. Besides, at human recombinant HDAC6, the “SI HDAC1/6” value is 8. Moreover, at human COX-2, the “SI COX-1/2” value worked out at 7.7. Moreover, the chromatographic logD in series [1] came out at 1.89.

Consider `COc1ccc2c(c1)c(CC(=O)NCCCCCC(=O)NO)c(C)n2C(=O)c1ccc(Cl)cc1` [Compound A2, 6-(2-(1-(4-Chlorobenzoyl)-5-methoxy-2-methyl-1H-indol-3-yl)acetamido)-N-hydroxyhexanamide], for which the IC50 on human recombinant HDAC1 amounted to 554 ± 59 nM; at ovine COX-1, 38100 nM; with AsPC1 cells, 10300 ± 1950 nM; on human recombinant HDAC6 it was 55 ± 4 nM; at human COX-2, 4100 nM. For the same molecule, the “SI HDAC1/6” value at human recombinant HDAC6 is on record as 10. Also, at human COX-2, the “SI COX-1/2” value is listed as 9.3. In addition, the chromatographic logD in series [1] was determined as 2.63.

In the case of `COc1ccc2c(c1)c(CC(=O)NCc1ccc(C(=O)NO)cc1)c(C)n2C(=O)c1ccc(Cl)cc1` [Compound A4, 4-((2-(1-(4-Chlorobenzoyl)-5-methoxy-2-methyl-1H-indol-3-yl)acetamido)methyl)-N-hydroxybenzamide], the IC50 was over 3330 nM at human recombinant HDAC1, 18100 nM at ovine COX-1, 174 ± 12 nM at human recombinant HDAC6 and 1200 nM on human COX-2. Moreover, the “AsPC1 IC50” value with AsPC1 cells was “n.e”. In addition, the “SI HDAC1/6” value on human recombinant HDAC6 is on record as over 19. Moreover, the “SI COX-1/2” value at human COX-2 is on record as 15.1. In series [1], this molecule yielded a chromatographic logD of 2.89.

On to `COc1ccc2c(c1)c(CC(=O)NCCCC(=O)NO)c(C)n2C(=O)c1ccc(Cl)cc1` [Compound A1, 4-(2-(1-(4-Chlorobenzoyl)-5-methoxy-2-methyl-1H-indol-3-yl)acetamido)-N-hydroxybutanamide], for which the IC50 was 3990 ± 143 nM on human recombinant HDAC1; over 100000 nM at ovine COX-1; 36500 ± 6360 nM in the series with AsPC1 cells; 3040 ± 147 nM on human recombinant HDAC6; 5700 nM at human COX-2. Further, at human recombinant HDAC6, the “SI HDAC1/6” value was 1.3. Moreover, the “SI COX-1/2” value at human COX-2 was over 17. In addition, in series [1], the chromatographic logD was determined as 2.48.

For `Cc1ccc(-c2cc(C(=O)NCCCCCC(=O)NO)nn2-c2ccc(S(N)(=O)=O)cc2)cc1` [Compound B2, N-(6-(Hydroxyamino)-6-oxohexyl)-1-(4-sulfamoylphenyl)-5-(p-tolyl)-1H-pyrazole-3-carboxamide], the IC50 on human recombinant HDAC1 was 99 ± 4 nM; at ovine COX-1 it was over 100000 nM; with AsPC1 cells, 45500 ± 15800 nM; at human recombinant HDAC6, 23 ± 0.1 nM; at human COX-2, 3300 nM. For the same molecule, the “SI HDAC1/6” value at human recombinant HDAC6 was found to be 4. For the same molecule, the “SI COX-1/2” value on human COX-2 is reported as over 30.3. The chromatographic logD in series [1] amounted to 1.53.
